Holding throughout (assay): biochemical
Common to all, as to format: binding

The target of one assay is T1, DRB1*0101 (Homo sapiens, UniProt P01903+P01911, A100R/D57E/F55L/F60I/F76Y/I96L/L162R/M171V/P40L/Q125E/R42F/V115G/Y59C).
T1 construct: made in house; host or cells: EBV-transformed homozygous human B cell lines, transfected fibroblasts or single-allele 721.221 transfectants

Another assay concerns the target T2, DRB1*0401 (Homo sapiens, UniProt P01903+P01911, A100K/A169T/F76Y/I96L/K127E/L162R/M171V/N62H/P40V/Q125Y/R42H/S133A/S149N/S66Y/V115G/V209L/W38E).
T2 construct: made in house; host or cells: EBV-transformed homozygous human B cell lines, transfected fibroblasts or single-allele 721.221 transfectants
The conditions noted are these: read-out: IC50 nM to purified HLA DRB1*0401.

Another assay addresses DRB1*0404 (Homo sapiens, UniProt P01903+P01911, A100R/A169T/F76Y/I96L/K127E/L162R/M171V/N62H/P40V/Q125Y/R42H/S133A/S149N/S66Y/V209L/W38E).
A further assay addresses DRB1*0405 (Homo sapiens, UniProt P01903+P01911, A100R/A169T/D86S/F76Y/I96L/K127E/L162R/M171V/N62H/P40V/Q125Y/R42H/S133A/S149N/S66Y/V115G/V209L/W38E). Conditions: read-out: IC50 nM to purified HLA DRB1*0405.
The next assay has as its target DRB1*0701 (Homo sapiens, UniProt P01903+P01911, A100R/A102G/A103Q/D57E/D86V/E43K/F76Y/K127E/L162R/M171V/P40G/Q125H/Q99D/R33Q/R42Y/R54Q/S133A/S66F/T210M/V115G/Y107V/Y59L/Y89S).
For the next assay, the target named is DRB1*1101 (Homo sapiens, UniProt P01903+P01911, A100R/A169T/A87E/I96F/K41T/L162R/M171V/P40S/Q125H/Q178H/Q39Y/Q99D/R42S/S66Y/T262R/V115G/W38E). Conditions: read-out: IC50 nM to purified HLA DRB1*1101.
For another assay, the target named is T3, DRB1*1501 (Homo sapiens, UniProt P01903+P01911).
T3 construct: made in house; host or cells: EBV-transformed homozygous human B cell lines, transfected fibroblasts or single-allele 721.221 transfectants
The conditions noted are these: read-out: IC50 nM to purified HLA DRB1*1501.

Another assay addresses T4, DRB1*0301 (Homo sapiens, UniProt P01903+P01911, A100K/A102G/A103R/A169T/F55Y/I96L/K41T/L162R/M171V/P40S/Q125H/Q178H/Q39Y/R42S/S66N/T106N/T262R/W38E/Y61H).
T4 construct: made in house; host or cells: EBV-transformed homozygous human B cell lines, transfected fibroblasts or single-allele 721.221 transfectants

The target in the next assay is DRB1*1302 (Homo sapiens, UniProt P01903+P01911, A100E/A169T/K41T/L162R/M171V/P40S/Q125H/Q178H/Q39Y/Q99D/R42S/S66N/T262R/V115G/W38E/Y61H). Conditions: read-out: IC50 nM to purified HLA DRB1*1302.
Another assay has as its target T5, DRB5*0101 (Homo sapiens, UniProt P01903+Q30154).
T5 construct: made in house; host or cells: EBV-transformed homozygous human B cell lines, transfected fibroblasts or single-allele 721.221 transfectants

The target of a further assay is T6, DRB4*0101 (Homo sapiens, UniProt P01903+P13762, G164S).
T6 construct: made in house; host or cells: EBV-transformed homozygous human B cell lines, transfected fibroblasts or single-allele 721.221 transfectants
The conditions noted are these: IC50 nM to purified HLA DRB4*0101.

Setting [1] is: IC50 nM to purified HLA DRB1*0101.
The mark [2] stands for this setting: IC50 nM to purified HLA DRB1*0404.

Values joined by “and” are separate entries in the source; they are usually repeats but may differ in a detail not shown here. Equal entries are not always repeated. Where two headings read alike, the source gives them in different places.

Chain of DRB1*1101 (P01903 26-254 limits assumed, other chains not shown): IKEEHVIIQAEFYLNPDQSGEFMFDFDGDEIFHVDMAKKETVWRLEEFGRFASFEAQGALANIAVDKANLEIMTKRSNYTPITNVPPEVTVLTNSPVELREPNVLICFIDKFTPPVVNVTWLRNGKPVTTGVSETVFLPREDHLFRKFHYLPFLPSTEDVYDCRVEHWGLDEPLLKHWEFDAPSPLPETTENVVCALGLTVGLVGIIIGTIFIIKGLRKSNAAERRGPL
T4 sequence (P01903 26-254, other chains not shown): as the sequence (P01903 26-254 limits assumed, other chains not shown) above
Chain of DRB1*1302 (P01903 26-254 limits assumed, other chains not shown): as above

Consider `CC[C@H](C)[C@H](NC(=O)CNC(=O)[C@@H](NC(=O)[C@@H](NC(=O)[C@H](CO)NC(=O)[C@H](C)NC(=O)[C@H](C)NC(=O)[C@@H](NC(=O)[C@@H](NC(=O)[C@H](CC(C)C)NC(=O)[C@@H]1CCCN1C(=O)[C@@H](N)CC(=O)O)C(C)C)C(C)C)[C@@H](C)CC)[C@@H](C)CC)C(=O)N[C@@H](CC(C)C)C(=O)N[C@@H](Cc1c[nH]cn1)C(=O)N[C@@H](CC(C)C)C(=O)O` [Flu.M2.27], for which the IC50 (as a rule, the concentration that inhibits the measured activity by half) worked out at 78 nM on DRB1*0101 (read-out: IC50 nM to purified HLA DRB1*0101); 92 nM at DRB1*0401; 23 nM on DRB1*0404 (read-out: IC50 nM to purified HLA DRB1*0404); 630 nM on DRB1*0405; 1300 nM on DRB1*0701 (read-out: IC50 nM to purified HLA DRB1*0701); 1800 nM on DRB1*1101. Moreover, the IC50 at DRB1*1501 stood at 2200 nM.

Consider `CC[C@H](C)[C@H](NC(=O)[C@H](CCC(=O)O)NC(=O)CNC(=O)[C@@H](N)C(C)C)C(=O)N[C@@H](CO)C(=O)N1CCC[C@H]1C(=O)N[C@@H](CC(C)C)C(=O)N1CCC[C@H]1C(=O)N[C@@H](CO)C(=O)N[C@@H](CC(C)C)C(=O)N1CCC[C@H]1C(=O)NCC(=O)N[C@@H](Cc1c[nH]cn1)C(=O)N[C@H](C(=O)N[C@@H](CC(=O)O)C(=O)O)[C@@H](C)O` [Flu.NS1.160], for which the IC50 is 14 nM and 12 nM against DRB1*0101 (setting [1]); 14 nM at DRB1*0101 (IC50 nM to purified HLA DRB1*0101, Table 4); above 10000 nM against DRB1*0301; 31 nM at DRB1*0401 (Table 4); 31 nM and 16 nM at DRB1*0401; 8.5 nM against DRB1*0404 (setting [2]). The IC50 against DRB1*0701 was above 10000 nM; at DRB1*1101, 90 nM; on DRB1*1302, above 10000 nM; on DRB1*1501 (Table 4), 38 nM; at DRB1*1501, 38 nM and 28 nM.

In the case of `CC[C@H](C)[C@H](NC(=O)[C@H](CCC(=O)O)NC(=O)[C@H](Cc1ccccc1)NC(=O)[C@@H](N)CCCNC(=N)N)C(=O)N[C@H](C(=O)NCC(=O)N[C@H](C(=O)N[C@@H](CCSC)C(=O)N[C@@H](CCCNC(=N)N)C(=O)N[C@@H](CCCNC(=N)N)C(=O)N[C@@H](CC(C)C)C(=O)N[C@@H](C)C(=O)N[C@@H](CC(=O)O)C(=O)N[C@@H](CCC(N)=O)C(=O)N[C@@H](CO)C(=O)O)[C@@H](C)O)[C@@H](C)O` [Flu.PA.207], the IC50 at DRB1*1101 was determined as 19 nM; on DRB5*0101, 9.2 nM.

Regarding `CC[C@H](C)[C@H](NC(=O)[C@H](CCSC)NC(=O)[C@H](CO)NC(=O)[C@@H](N)CCC(=O)O)C(=O)N[C@@H](CCC(=O)O)C(=O)N[C@@H](C)C(=O)N[C@@H](CCC(=O)O)C(=O)N[C@@H](CO)C(=O)N[C@@H](CO)C(=O)N[C@H](C(=O)N[C@@H](CCCCN)C(=O)N[C@@H](CCC(=O)O)C(=O)N[C@@H](CCCCN)C(=O)N[C@@H](CC(=O)O)C(=O)N[C@@H](CCSC)C(=O)O)C(C)C` [Flu.PA.596], the IC50 stood at 121 nM on DRB1*0404 (setting [2]), 72 nM at DRB1*0405, 12000 nM at DRB1*1101 and 600 nM against DRB5*0101.

As to `CC[C@H](C)[C@H](NC(=O)CNC(=O)[C@@H]1CCCN1C(=O)[C@H](Cc1c[nH]cn1)NC(=O)[C@H](CO)NC(=O)[C@H](CCC(=O)O)NC(=O)[C@H](CCC(=O)O)NC(=O)[C@H](CC(C)C)NC(=O)[C@H](Cc1ccccc1)NC(=O)[C@H](C)NC(=O)[C@H](CCSC)NC(=O)[C@H](C)N)C(=O)N[C@@H](Cc1ccccc1)C(=O)N[C@@H](CCC(=O)O)C(=O)N[C@@H](CC(N)=O)C(=O)O` [Flu.PB1.94], the IC50 was 400 nM against DRB1*0301 and 84 nM on DRB1*0701.

Regarding `CC[C@H](C)[C@H](NC(=O)[C@H](CC(N)=O)NC(=O)[C@H](Cc1ccc(O)cc1)NC(=O)[C@H](CC(C)C)NC(=O)[C@H](CC(N)=O)NC(=O)[C@@H]1CCCN1)C(=O)N[C@@H](CCCNC(=N)N)C(=O)N[C@@H](CC(N)=O)C(=O)N[C@@H](CC(C)C)C(=O)N[C@@H](Cc1c[nH]cn1)C(=O)N[C@H](C(=O)N1CCC[C@H]1C(=O)N[C@@H](CCC(=O)O)C(=O)N[C@H](C(=O)N[C@@H](CS)C(=O)O)C(C)C)[C@@H](C)CC` [Flu.PB1.599], at DRB5*0101 (read-out: IC50 nM to purified HLA DRB5*0101), the IC50 is 2310 nM.

As for `CSCC[C@H](NC(=O)[C@H](CO)NC(=O)[C@H](CCCCN)NC(=O)[C@H](C)N)C(=O)N[C@@H](CCC(=O)O)C(=O)N[C@@H](Cc1ccc(O)cc1)C(=O)N[C@@H](CC(=O)O)C(=O)N[C@@H](C)C(=O)N[C@H](C(=O)N[C@@H](C)C(=O)N[C@H](C(=O)N[C@H](C(=O)N[C@@H](Cc1c[nH]cn1)C(=O)N[C@@H](CO)C(=O)N[C@@H](Cc1c[nH]c2ccccc12)C(=O)O)[C@@H](C)O)[C@@H](C)O)C(C)C` [Flu.PB1.655], the half-inhibitory concentration (IC50) against DRB1*0101 (setting [1]) was 202 nM; on DRB1*0301, 909 nM; at DRB1*0401, 53 nM; against DRB1*0404 (setting [2]) it was 646 nM; on DRB1*0405 it was 626 nM; at DRB1*0701, 292 nM. For the same compound, the IC50 on DRB1*1101 turned out to be 6620 nM; on DRB1*1302, 2180 nM; on DRB1*1501 it was 1990 nM; against DRB4*0101, 6340 nM; against DRB5*0101 it was 3530 nM.

On to `CC[C@H](C)[C@H](NC(=O)CNC(=O)[C@@H](NC(=O)[C@@H]1CCCN1C(=O)[C@H](CCCNC(=N)N)NC(=O)[C@@H](N)CCCNC(=N)N)C(C)C)C(=O)N[C@@H](CO)C(=O)N[C@@H](CO)C(=O)N[C@@H](CCSC)C(=O)N[C@H](C(=O)N[C@@H](CCC(=O)O)C(=O)N[C@@H](C)C(=O)N[C@@H](CCSC)C(=O)N[C@H](C(=O)N[C@@H](CO)C(=O)O)C(C)C)C(C)C` [Flu.PB1.709], for which the IC50 against DRB1*0701 was determined as 1800 nM; at DRB1*1501, 240 nM.

`CC[C@H](C)[C@H](NC(=O)[C@H](CO)NC(=O)[C@H](CCC(N)=O)NC(=O)[C@H](CCC(=O)O)NC(=O)[C@H](CC(=O)O)NC(=O)[C@H](CCCNC(=N)N)NC(=O)CNC(=O)[C@H](CO)NC(=O)[C@@H](NC(=O)[C@@H](NC(=O)[C@H](CC(C)C)NC(=O)[C@H](CCC(N)=O)NC(=O)[C@@H](NC(=O)[C@@H](N)CC(C)C)[C@@H](C)CC)[C@@H](C)CC)C(C)C)C(=O)N[C@@H](C)C(=O)O` [Flu.PB2.384]: the IC50 is 3230 nM at DRB1*0101 (setting [1]); 53 nM at DRB1*0301; 83 nM at DRB1*0401; 90 nM against DRB1*0404 (setting [2]); 460 nM at DRB1*0405; 2010 nM at DRB1*1101. The IC50 at DRB1*1302 came to 4680 nM; on DRB1*1501, 420 nM; on DRB4*0101, 9.9 nM.

`CC[C@H](C)[C@H](NC(=O)[C@H](CCSC)NC(=O)[C@H](CS)NC(=O)[C@H](CC(=O)O)NC(=O)[C@H](CCC(=O)O)NC(=O)[C@H](CCC(N)=O)NC(=O)[C@H](CO)NC(=O)[C@H](Cc1ccccc1)NC(=O)[C@@H](NC(=O)[C@H](CCSC)NC(=O)[C@H](C)N)C(C)C)C(=O)N[C@@H](CCCCN)C(=O)N[C@@H](C)C(=O)N[C@H](C(=O)N[C@@H](CCCNC(=N)N)C(=O)O)C(C)C` [Flu.PB2.404]: the IC50 at DRB1*0101 (setting [1]) came out at 11000 nM; against DRB1*0301, 718 nM; on DRB1*0401 it was 3280 nM; against DRB1*0404 (setting [2]), 336 nM; on DRB1*0405, 6780 nM; on DRB1*1302 it was 9200 nM.
